Source: patent US8933123B2, “Polymorphic forms of O-desmethyl-venlafaxine succinate” (Cadila Healthcare Limited, priority 2010, dated 2015)

Assay: Storage stability of packed crystalline forms (water content and polymorphic conversion by X-ray powder diffraction)
Type: physicochemical
Description: The crystalline form of O-desmethyl-venlafaxine succinate obtained in example-5 or example-6 were stored under nitrogen atmosphere and packed in a non-permeable bag tied with a thread, keeping primary packing inside a black color polyethylene bag containing oxygen busters and sealing it, placing above the non-permeable bag inside a triple laminated bag containing oxygen busters and sealing it, and placing the sealed triple laminated bag inside a closed high density polyethylene (HDPE) container.

[1] = storage for 3 months at 25° C. and a relative humidity of 60%
[2] = storage for 3 months at 40° C. and a relative humidity of 75%

Compound | crystalline Form-I or Form-II detected by X-ray powder diffraction after storage [1] | water content after storage [1] [%] | crystalline Form-I or Form-II detected by X-ray powder diffraction after storage [2] | water content after storage [2] [%]
CN(C)CC(c1ccc(O)cc1)C1(O)CCCCC1.O=C(O)CCC(=O)O (centres unmarked) [Form “Z1”, O-desmethyl-venlafaxine succinate] | no detectable amount of crystalline Form-I or Form-II | ≤ 1.5 | no detectable amount of crystalline Form-I or Form-II | ≤ 1.5
CN(C)CC(c1ccc(O)cc1)C1(O)CCCCC1.O=C(O)CCC(=O)O (centres unmarked) [Form “Z”, O-desmethyl-venlafaxine succinate] | no detectable amount of crystalline Form-I or Form-II | ≤ 3.0 | no detectable amount of crystalline Form-I or Form-II | ≤ 3.0
